Reference: patent US7226939B2, “Thienopyridine analogues with antifungal activity and process thereof” (priority 2002, dated 2007)

System: C. albicans
Assay: In vitro antifungal susceptibility testing (MIC), soyabean casein digest broth
Assay type: cell-based
Details: Candida albicans, reference standard, end points after 48 hours, read-out: minimum inhibitory concentration
Protocol: In vitro evaluation of antifungal activity can be performed by determining the minimum inhibitory concentration.
Anti-fungal susceptibility testing of these anti-fungal compounds was done by conventional method using soyabean casein digest broth. Known anti-fungal agents like Fluconazole and amphotericin-B were used as positive Control. End points were determined after 48 hours visually and by using Spectrophotometer wherever necessary. Different dilutions were tried and the set of experiments where repeated to confirm the end points. Standard cultures of Candida, Aspergillus and Fusarium were used for screening of these drugs.
Substituents and In-Vitro Anti-Fungal Activity (C. albicans) of the Compounds Expressed as MIC* (μg/ml). Reference Standard (RS) Fluconazole.

MIC: < 3.12 µg/mL
Compound: OC(Cn1cncn1)(Cn1cncn1)c1ccc(F)cc1F [Fluconazole]
